Assay results: publication PMC3641313 (Korean Journal of Pediatrics, 2013)
Entries after “also recorded” stand apart in the source; their conditions may differ. Like-named read-outs stand apart in the source and are kept apart here.

Tested on: viral NA of influenza A/H1N1
Type: biochemical, influenza A/H1N1 virus

Structure (SMILES)	sensitivity or resistance of isolates by IC50 criteria (A/H1N1, first study period, both groups, […])	sensitivity or resistance of isolates by IC50 criteria (A/H1N1, second study period, both groups, […])	resistance of influenza A/H1N1 isolates	sensitivity or resistance of isolates by IC50 criteria
CCOC(=O)C1=C[C@@H](OC(CC)CC)[C@H](NC(C)=O)[C@@H](N)C1 [Oseltamivir]	sensitivity	high-level drug resistance	–	–
CC(=O)N[C@H]1[C@H]([C@H](O)[C@H](O)CO)OC(C(=O)O)=C[C@@H]1N=C(N)N [Zanamivir]	–	–	no zanamivir resistance	sensitivity; also recorded: sensitive
